In patent US9023878B2 (Neurophyxia B.V., priority 2010, dated 2015):
Values joined by “and” are separate entries in the source; they are usually repeats but may differ in a detail not shown here. Identical values can stand only once.

Experiments:
[1] = Solubility/encapsulation in cyclodextrin solutions (excess 2-IB, three days, filtered, RP-HPLC)
Procedure: An excess of 2-IB was added to the cyclodextrin solutions, mixed at room temperature for three days and then filtered to remove non-encapsulated) non-solubilised 2-IB.

[2] = Novel excipients (Cremophor EL, Solutol HS 15): 2-IB content of formulations at t=0 and after 48 hours; conditions: for Concentration t = 0 / Concentration t = 48 h: Solutol HS 15 formulation
Procedure: Finally two novel excipients were tested, Cremophor EL and Solutol HS 15.
A range of 2-IB formulations were prepared that were stored for 48 hours and measured for 2-IB content:

[3] = Solubility in citrate buffers (excess 2-IB, filtered, RP-HPLC); type: physicochemical
Procedure: An excess of 2-IB was added to citrate buffers, mixed at room temperature and then filtered to remove nonsolubilised 2-IB.

[4] = nominal 5.0 mg/ml, pH 2.4, after filtration
[5] = nominal 5.0 mg/ml, pH 2.8, after filtration
[6] = nominal 5.0 mg/ml, pH 3.0, after filtration
[7] = nominal 5.0 mg/ml, pH 3.5, after filtration
[8] = nominal 5.0 mg/ml, pH 3.6, after filtration
[9] = nominal 5.0 mg/ml, pH 3.8, after filtration
[10] = nominal 5.0 mg/ml, pH 10.2, after filtration
[11] = nominal 10 mg/ml, pH 3.0, after filtration
[12] = nominal 10 mg/ml, pH 3.5, after filtration
[13] = nominal 20 mg/ml, pH 3.0, after filtration
[14] = nominal 20 mg/ml, pH 3.5, after filtration

In the case of `N=C1N[C@H]2[C@H](CS[C@H]2CCCCC(=O)O)N1` [Formulation 2-IB, 2-iminobiotin], the “concentration of 2-IB” value ([1]; 0% cyclodextrin, Citrate pH 5.0, final pH 5.0) is reported as 0.6 mg/mL, the “concentration of 2-IB” value ([1]; 0% cyclodextrin, WFI, final pH 6.5) is reported as 0.4 mg/mL and the “concentration of 2-IB” value ([1]; 2.5% HP-CD, Citrate pH 4.0, final pH 4.2) is reported as 2.5 mg/mL. For the same molecule, the “concentration of 2-IB” value ([1]; 2.5% HP-CD, Citrate pH 5.0, final pH 5.1) was 0.9 mg/mL, the “concentration of 2-IB” value ([1]; 2.5% HP-CD, WFI, final pH 6.5) was 0.5 mg/mL and the “concentration of 2-IB” value ([1]; 2.5% SBE-CD, Citrate pH 4.0, final pH 4.3) was 3.7 mg/mL. For the same molecule, the “concentration of 2-IB” value ([1]; 2.5% SBE-CD, Citrate pH 5.0, final pH 5.0) was 1.9 mg/mL, the “concentration of 2-IB” value ([1]; 2.5% SBE-CD, WFI, final pH 6.3) was 0.7 mg/mL and the “concentration of 2-IB” value ([1]; 5% HP-CD, Citrate pH 4.0, final pH 4.3) was 3.0 mg/mL. The “concentration of 2-IB” value ([1]; 5% HP-CD, Citrate pH 5.0, final pH 5.1) was 1.2 mg/mL, the “concentration of 2-IB” value ([1]; 5% HP-CD, WFI, final pH 6.5) was 0.5 mg/mL and the “concentration of 2-IB” value ([1]; 5% SBE-CD, Citrate pH 4.0, final pH 4.4) was 5.5 mg/mL. The “concentration of 2-IB” value ([1]; 5% SBE-CD, Citrate pH 5.0, final pH 5.1) was 2.9 mg/mL, the “concentration of 2-IB” value ([1]; 5% SBE-CD, WFI, final pH 6.5) was 1.0 mg/mL and the “concentration of 2-IB” value ([1]; 10% HP-CD, Citrate pH 4.0, final pH 4.5) was 4.1 mg/mL. The “concentration of 2-IB” value ([1]; 10% HP-CD, Citrate pH 5.0, final pH 5.2) was 1.6 mg/mL, the “concentration of 2-IB” value ([1]; 10% HP-CD, WFI, final pH 6.5) was 0.6 mg/mL and the “concentration of 2-IB” value ([1]; 10% SBE-CD, Citrate pH 4.0, final pH 4.6) was 8.0 mg/mL. For the same molecule, the “concentration of 2-IB” value ([1]; 10% SBE-CD, Citrate pH 5.0, final pH 5.1) was 4.6 mg/mL, the “concentration of 2-IB” value ([1]; 10% SBE-CD, WFI, final pH 6.5) was 1.5 mg/mL and the “concentration of 2-IB” value ([1]; 20% HP-CD, Citrate pH 4.0, final pH 4.7) was 5.1 mg/mL. The “concentration of 2-IB” value ([1]; 20% HP-CD, Citrate pH 5.0, final pH 5.3) was 2.1 mg/mL, the “concentration of 2-IB” value ([1]; 20% HP-CD, WFI, final pH 6.6) was 0.9 mg/mL and the “concentration of 2-IB” value ([1]; 20% SBE-CD, Citrate pH 4.0, final pH 4.9) was 11.4 mg/mL. The “concentration of 2-IB” value ([1]; 20% SBE-CD, Citrate pH 5.0, final pH 5.3) was 7.0 mg/mL, the “concentration of 2-IB” value ([1]; 20% SBE-CD, WFI, final pH 6.7) was 2.4 mg/mL and the “concentration of 2-IB” value ([1]; 40% HP-CD, Citrate pH 4.0, final pH 5.0) was 5.6 mg/mL. For the same molecule, the “concentration of 2-IB” value ([1]; 40% HP-CD, Citrate pH 5.0, final pH 5.6) was 2.6 mg/mL, the “concentration of 2-IB” value ([1]; 40% HP-CD, WFI, final pH 6.7) was 1.2 mg/mL and the “Solutol HS 15 concentration giving optimal solubility” value ([2]; 5-10-15-20-25% Solutol HS 15 tested at approximately 5 mg/ml) was 20%. For the same molecule, the “pH at which the formulation could be prepared” value ([2]; 20% Solutol HS 15 and 5% Dextrose in water) was 3.5-3.6, the “Concentration t = 0” value [2, 4] was 5.65 mg/mL and the “Concentration t = 48 h” value [2, 4] was 4.78 mg/mL. The “Concentration t = 0” value [2, 5] was 5.43 mg/mL, the “Concentration t = 48 h” value [2, 5] was 5.45 mg/mL and the “Concentration t = 0” value [2, 6] was 4.64 mg/mL. The “Concentration t = 48 h” value [2, 6] was 4.87 mg/mL, the “Concentration t = 0” value [2, 7] was 5.21 mg/mL and the “Concentration t = 48 h” value [2, 7] was 4.94 mg/mL. The “Concentration t = 0” value [2, 8] was 4.52 mg/mL, the “Concentration t = 48 h” value [2, 8] was 3.93 mg/mL and the “Concentration t = 0” value [2, 9] was 5.10 mg/mL. For the same molecule, the “Concentration t = 48 h” value [2, 9] was 2.62 mg/mL, the “Concentration t = 0” value [2, 10] was 5.71 mg/mL and the “Concentration t = 48 h” value [2, 10] was 0 mg/mL. The “Concentration t = 0” value [2, 11] was 9.06 mg/mL, the “Concentration t = 48 h” value [2, 11] was 8.64 mg/mL and the “Concentration t = 0” value [2, 12] was 8.30 mg/mL. The “Concentration t = 48 h” value [2, 12] was 8.04 mg/mL, the “Concentration t = 0” value [2, 13] was 16.6 mg/mL and the “Concentration t = 48 h” value [2, 13] was 16.7 mg/mL. For the same molecule, the “Concentration t = 0” value [2, 14] was 14.7 mg/mL, the “Concentration t = 48 h” value [2, 14] was 13.2 mg/mL and the “Conc. 2IB” value ([3]; 50 mM Citrate pH 3.0, final pH 3.07, room temperature) was 11 mg/mL and 11.27 mg/mL. For the same molecule, the “Conc. 2IB” value ([3]; 50 mM Citrate pH 3.5, final pH 3.52) was 4.45 mg/mL, the “Conc. 2IB” value ([3]; 50 mM Citrate pH 4.0, final pH 4.03) was 1.72 mg/mL and the “Conc. 2IB” value ([3]; 50 mM Citrate pH 4.5, final pH 4.54) was 0.86 mg/mL. The “Conc. 2IB” value ([3]; 50 mM Citrate pH 5.0, final pH 5.02) was 0.59 mg/mL.
